Tested on: PDE isozymes 1-11 (except PDE6)
Experiment: IMAP fluorescence polarization PDE assay, panel of PDE isozymes
Type: biochemical
Settings: 25 μM; FIG. 5C
Protocol: PDE activity was measured using the IMAP fluorescence polarization PDE assay (Molecular Devices) in which the binding of hydrolyzed fluorescent cyclic nucleotide substrate to the IMAP reagent increases fluorescence polarization. Each well of a 96-well nonbinding plate contained 0.25 mg/mL of recombinant enzyme preparations. Enzymes were incubated with COMPOUND 9 or vehicle (DMSO) for 30 min at 30° C. before the addition of a substrate mixture containing 25 nmol/L of fluorescein-cGMP. The DMSO final concentration for each experiment was 2%. After 90 min of incubation at 30° C., the reaction was terminated by the addition of binding reagent. The maximum Fluorescence polarization was measured using a Synergy4 (BioTek) plate reader.

Question: With `COc1cc2c(cc1OC)/C(=C\c1cc(OC)c(OC)c(OC)c1)C(C)=C2CC(=O)O` [Compound 9, (Z)-2-(5,6-dimethoxy-2-methyl-1-(3,4,5-trimethoxybenzylidene)-1H-inden-3-yl)acetic acid] as the compound, how does the “Inhibition of other cGMP PDE isozymes, including PDE 1, 2, 3 and 11” value read?
Answer: The value was “lower inhibitory effects”.

Question: What about the PDE isozyme selectivity of the same compound?
Answer: The PDE isozyme selectivity was “most active against PDE5 and 10”.
